Structures can show the parent of a compound that is named as a salt. Where two headings read alike, the source gives them in different places.
Biological target: T1, human AspH (His6-AspH315–758) (Homo sapiens, UniProt Q12797)
T1 construct: N-Terminally His6-tagged human AspH315–758 (His6-AspH315–758) was produced in Escherichia coli BL21 (DE3) cells; made in house; host or cells: Escherichia coli BL21 (DE3), pET-28a(+) vector
T1 sequence (Q12797 315-758): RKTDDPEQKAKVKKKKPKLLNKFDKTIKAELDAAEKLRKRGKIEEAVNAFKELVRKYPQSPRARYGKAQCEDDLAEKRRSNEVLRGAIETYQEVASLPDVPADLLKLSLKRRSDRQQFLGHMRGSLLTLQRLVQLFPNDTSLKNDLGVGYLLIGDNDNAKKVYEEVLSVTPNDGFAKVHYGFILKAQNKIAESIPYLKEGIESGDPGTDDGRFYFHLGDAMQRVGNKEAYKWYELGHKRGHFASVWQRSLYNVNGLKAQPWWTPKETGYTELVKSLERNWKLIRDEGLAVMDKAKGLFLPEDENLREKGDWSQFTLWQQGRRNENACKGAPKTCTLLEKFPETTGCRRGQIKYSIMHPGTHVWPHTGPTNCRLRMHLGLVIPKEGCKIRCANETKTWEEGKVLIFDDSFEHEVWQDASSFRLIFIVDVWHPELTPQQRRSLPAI
Experiment: SPE-MS AspH inhibition assay (hFX-CP101-119 substrate hydroxylation)
Format: biochemical
Conditions: for Plate 1 (% inhibition) / Plate 1 (% conversion) / Plate 1-duplicate (% inhibition) / Plate 1-duplicate (% conversion): AspH-inhibitor screening; for Plate 1 (% inhibition): 384-well Plate 1; for Plate 1 (% conversion): 384-well Plate 1, substrate conversion; for Plate 1-duplicate (% conversion): substrate conversion

Compound | Plate 1 (% inhibition) [%] | Plate 1 (% conversion) [%] | Plate 1-duplicate (% inhibition) [%] | Plate 1-duplicate (% conversion) [%] | IC50 (50 nM His6-AspH315–758, 1 μM hFX-CP101–119, 100 μM LAA, 3 μM 2OG, 2 μM FAS, 50 mM HEPES pH 7.5, 20 °C, read-out: IC50) [µM] | remaining activity at 20 µM (20 μM fixed inhibitor concentration) [%] | Hill coefficient of AspH inhibition curves (dose-response curves of SPE-MS AspH inhibition assay) | IC50 (read-out: IC50 at 10 μM substrate, 10 μM hFX-CP101–119 and 10 μM 2OG instead of 1 μM hFX-CP101–119 and 3 μM 2OG) [µM] | IC50 (read-out: IC50 at 20 μM Fe(II), 20 μM Fe(II) instead of 2 μM Fe(II)) [µM] | IC50 (read-out: IC50 at 200 μM 2OG, 200 μM 2OG instead of 3 μM 2OG) [µM]
CC1(C)NC(=O)N(c2ccc([N+](=O)[O-])c(C(F)(F)F)c2)C1=O [Nilutamide] | 4.05 | 47.88 | 4.06 | 50.03 | – | – | – | – | – | –
COc1ccc(C2=N[C@@H](c3ccc(Cl)cc3)[C@@H](c3ccc(Cl)cc3)N2C(=O)N2CCNC(=O)C2)c(OC(C)C)c1 [Nutlin-3] | -13.27 | 55.88 | -5.84 | 54.94 | – | – | – | – | – | –
COc1cccc2cc(-c3nc([C@H]4CC[C@H](C(=O)O)CC4)n4ncnc(N)c34)[nH]c12 [OSI-027] | -4.91 | 52.02 | -2.62 | 53.34 | – | – | – | – | – | –
C[C@]1(O)C[C@@H](c2nc(-c3ccc4ccc(-c5ccccc5)nc4c3)c3c(N)nccn32)C1 [OSI-906_Linsitinib] | 4.66 | 47.60 | -12.38 | 58.18 | – | – | – | – | – | –
COc1c/c(=C2\C=c3ccccc3=N2)[nH]/c1=C\c1[nH]c(C)cc1C.CS(=O)(=O)O [Obatoclax, reference compound] | – | – | – | – | 13.2 ± 3.1 | ~20 | < -2.0 | 9.44 ± 3.16 | 11.9 ± 0.8 | 16.4 ± 4.6
O=C(c1cc(Cc2n[nH]c(=O)c3ccccc23)ccc1F)N1CCN(C(=O)C2CC2)CC1 [Olaparib] | 15.27 | 42.70 | 14.14 | 45.03 | – | – | – | – | – | –
COC(=O)C[C@](O)(CCCC(C)(C)O)C(=O)O[C@@H]1C(OC)=C[C@]23CCCN2CCc2cc4c(cc2[C@H]13)OCO4 [Omacetaxine mepesuccinate] | -1.21 | 50.31 | 6.33 | 48.90 | – | – | – | – | – | –
C=CC(=O)Nc1cc(Nc2nccc(-c3cn(C)c4ccccc34)n2)c(OC)cc1N(C)CCN(C)C [Osimertinib] | 34.01 | 34.05 | 33.73 | 35.31 | – | – | – | – | – | –
O=C(O)C(=O)O.[NH-][C@@H]1CCCC[C@H]1[NH-].[Pt+2] [Oxaliplatin] | 8.19 | 45.97 | 11.28 | 46.45 | – | – | – | – | – | –
C=CCc1cccc(/C=N/NC(=O)CN2CCN(Cc3ccccc3)CC2)c1O [PAC-1] | 3.72 | 48.03 | -0.37 | 52.23 | – | – | – | – | – | –
C=CC(=O)N1CCC[C@@H](n2nc(-c3ccc(Oc4ccccc4)cc3)c3c(N)ncnc32)C1 [PCI-32765_Ibrutinib] | 0.65 | 49.45 | -9.59 | 56.80 | – | – | – | – | – | –
CC(=O)c1c(C)c2cnc(Nc3ccc(N4CCNCC4)cn3)nc2n(C2CCCC2)c1=O [PD-0332991] | 1.12 | 49.23 | -1.13 | 52.60 | – | – | – | – | – | –
Nc1nccc(-c2c(-c3ccc(F)cc3)ncn2C2CCCCC2)n1 [PF670462] | 40.03 | 31.27 | 29.89 | 37.22 | – | – | – | – | – | –
Nc1ncnc2c1c(COc1cccc(Cl)c1)nn2C1CCOCC1 [PF4800567 hydrochloride] | -0.85 | 50.14 | 0.27 | 51.91 | – | – | – | – | – | –
CN(c1ccccc1CNc1nc(Nc2ccc3c(c2)CC(=O)N3)ncc1C(F)(F)F)S(C)(=O)=O [PF 431396] | 1.90 | 48.87 | -4.64 | 54.34 | – | – | – | – | – | –
Cn1cc(-c2[nH]c3cc(NC(=O)[C@H](N)C4CCCCC4)cc4c3c2C=NNC4=O)cn1 [PF 477736] | -54.30 | 74.83 | -54.03 | 78.84 | – | – | – | – | – | –
O=C(Nc1cccnc1)N1CCC(Cc2cccc(Oc3ccc(C(F)(F)F)cn3)c2)CC1 [PF-3845] | 5.62 | 47.15 | -12.27 | 58.13 | – | – | – | – | – | –
C[C@@H](Oc1cc(-c2cnn(C3CCNCC3)c2)cnc1N)c1c(Cl)ccc(F)c1Cl [PF-2341066 (Crizotinib)] | -4.19 | 51.68 | -4.98 | 54.51 | – | – | – | – | – | –
COc1ccc(-c2cc3c(C)nc(N)nc3n([C@H]3CC[C@H](OCCO)CC3)c2=O)cn1 [PF-04691502] | -6.58 | 52.79 | -5.13 | 54.58 | – | – | – | – | – | –
CCc1cncnc1N1CCN(Cc2nc3ccc(C(F)(F)F)cc3[nH]2)CC1 [PF-04708671] | -5.43 | 52.26 | -7.38 | 55.70 | – | – | – | – | – | –
CO[C@@H](C(=O)N1Cc2[nH]nc(NC(=O)c3ccc(N4CCN(C)CC4)cc3)c2C1)c1ccccc1 [PHA-739358 (Danusertib)] | 4.40 | 47.72 | 1.12 | 51.48 | – | – | – | – | – | –
Cc1ccc([N+](=O)[O-])cc1S(=O)(=O)N(C)/N=C/c1cnc2ccc(Br)cn12.Cl [PIK-75 HCl] | -11.59 | 55.10 | -0.06 | 52.07 | – | – | – | – | – | –
CO[C@@H]1[C@H](N(C)C(=O)c2ccccc2)C[C@H]2O[C@]1(C)n1c3ccccc3c3c4c(c5c6ccccc6n2c5c31)C(=O)NC4 [PKC412_Midostaurin] | – | 7.13 | – | 6.90 | – | – | – | – | – | –
CCCS(=O)(=O)Nc1ccc(F)c(C(=O)c2c[nH]c3ncc(-c4ccc(Cl)cc4)cc23)c1F [PLX4032_Vemurafenib] | 39.76 | 31.39 | 46.15 | 29.15 | – | – | – | – | – | –
CC(=O)O[C@H]1C(=O)[C@@]2(C)[C@H]([C@H](OC(=O)c3ccccc3)[C@]3(O)C[C@H](OC(=O)[C@H](O)[C@@H](NC(=O)c4ccccc4)c4ccccc4)C(C)=C1C3(C)C)[C@]1(OC(C)=O)CO[C@@H]1C[C@@H]2O [Paclitaxel] | 6.60 | 46.70 | -2.08 | 53.08 | – | – | – | – | – | –
CC(=O)c1c(C)c2cnc(Nc3ccc(N4CCNCC4)cn3)nc2n(C2CCCC2)c1=O [Palbociclib] | 13.54 | 43.50 | 4.20 | 49.96 | – | – | – | – | – | –
Cc1[nH]c2ccccc2c1CCNCc1ccc(/C=C/C(=O)NO)cc1 [Panobinostat] | 44.02 | 29.42 | 37.62 | 33.38 | – | – | – | – | – | –

Source: paper PMC7588595, “Small-molecule active pharmaceutical ingredients of approved cancer therapeutics inhibit human aspartate/asparagine-β-hydroxylase” (Bioorganic & Medicinal Chemistry, 2020)
